The values that follow come from patent US20240400555A1 (Initial Therapeutics, Inc., priority 2023, published 2024).

This experiment relates to HCT-116 Firefly-luciferase reporter cells. Put plainly: Cellular c-MYC Reporter Assay. The conditions noted are these: Homo sapiens; untitled table following Table 8a; HCT-116 Firefly-luciferase reporter cells, 24 h; read-out: pIC50 (converted). It is filed as cell-based. Put shortly: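 Reporter cells seeded at 5e4 cells/mL in McCoy's 5A with 10% FBS and G418, dosed after 4–6 h at 0.2% final DMSO. After 24 h at 37 °C, luciferase luminescence was read with ONE-Glo.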
A general note: A reporter such as luciferase makes a cellular process visible.
For `NC(=O)CCc1ccc2ccnc(N(C(=O)c3ccc(-n4nnc5cccnc54)cc3F)[C@@H]3CCCNC3)c2c1` [Example 148, (R)-4-(3H-[1,2,3]triazolo[4,5-b]pyridin-3-yl)-N-(7-(3-amino-3-oxopropyl)isoquinolin-1-yl)-2-fluoro-N-(piperidin-3-yl)benzamide], the IC50 is 13.8 µM.
For the compound `Cc1cnc(N(C(=O)c2ccc(-n3nnc4cccnc43)cc2F)[C@@H]2CCCNC2)c2c(C)cccc12` [Example 252, (R)-4-(3H-[1,2,3]triazolo[4,5-b]pyridin-3-yl)-N-(4,8-dimethylisoquinolin-1-yl)-2-fluoro-N-(piperidin-3-yl)benzamide], the IC50 is 1.41 µM.
Consider `Cc1cccc2ccnc(N(C(=O)c3ccc(-n4nnc5cccnc54)cc3F)[C@@H]3CCCNC3)c12` [Example 242, (R)-4-(3H-[1,2,3]triazolo[4,5-b]pyridin-3-yl)-2-fluoro-N-(8-methylisoquinolin-1-yl)-N-(piperidin-3-yl)benzamide], for which the IC50 is 0.038 µM.
Then `COc1cccc2ccnc(N(C(=O)c3ccc(-n4nnc5cccnc54)cc3F)[C@@H]3CCCNC3)c12` [Example 222, (R)-4-(3H-[1,2,3]triazolo[4,5-b]pyridin-3-yl)-2-fluoro-N-(8-methoxyisoquinolin-1-yl)-N-(piperidin-3-yl)benzamide], with 0.0933 µM; and `O=C(c1ccc(-n2nnc3cccnc32)cc1F)N(c1nccc2sc(-c3ccncc3)cc12)[C@@H]1CCCNC1` [Example 161, (R)-4-(3H-[1,2,3]triazolo[4,5-b]pyridin-3-yl)-2-fluoro-N-(piperidin-3-yl)-N-(2-(pyridin-4-yl)thieno[3,2-c]pyridin-4-yl)benzamide], with 0.417 µM; and `Cc1cccc2ccnc(N(C(=O)c3ccc(Nc4ccc[nH]c4=O)cc3F)[C@@H]3CCCNC3)c12` [Example 132, (R)-2-fluoro-N-(8-methylisoquinolin-1-yl)-4-((2-oxo-1,2-dihydropyridin-3-yl)amino)-N-(piperidin-3-yl)benzamide], with 1.58 µM.
Turning to `Cc1cccc2ccnc(N(C(=O)c3ccc(-c4cnccn4)cc3F)[C@@H]3CCCNC3)c12` [Example 204, (R)-2-fluoro-N-(8-methylisoquinolin-1-yl)-N-(piperidin-3-yl)-4-(pyrazin-2-yl)benzamide], the IC50 is 0.479 µM.
Turning to `Cc1cc(C)c2c(N(C(=O)N3CCC(c4cc(C)no4)CC3)[C@@H]3CCCNC3)nccc2c1` [Example 278, (R)—N-(6,8-dimethylisoquinolin-1-yl)-4-(3-methylisoxazol-5-yl)-N-(piperidin-3-yl)piperidine-1-carboxamide], the IC50 was 0.49 µM.
As for `Cc1cccc2ccnc(N(C(=O)c3ccc(Nc4ncco4)cc3F)[C@@H]3CCCNC3)c12` [Example 290, (R)-2-fluoro-N-(8-methylisoquinolin-1-yl)-4-(oxazol-2-ylamino)-N-(piperidin-3-yl) benzamide], the figure is 3.39 µM.
Consider `O=C(c1ccc(-n2nnc3cccnc32)cc1F)N(c1nccc2sc(/C=C/CO)cc12)[C@@H]1CCCNC1` [Example 158, (R,E)-4-(3H-[1,2,3]triazolo[4,5-b]pyridin-3-yl)-2-fluoro-N-(2-(3-hydroxyprop-1-en-1-yl)thieno[3,2-c]pyridin-4-yl)-N-(piperidin-3-yl)benzamide], for which the IC50 is 0.692 µM.
As for `Cc1cccc2ccnc(N(C(=O)N3CCCC(C)(c4ccccc4)C3)[C@@H]3CCCNC3)c12` (stereo partly drawn) [Example 267, 3-methyl-N-(8-methylisoquinolin-1-yl)-3-phenyl-N—((R)-piperidin-3-yl)piperidine-1-carboxamide], the figure is 5.37 µM.
As for `CCOC(=O)/C=C/c1cccc2ccnc(N(C(=O)c3ccc(-c4cn(C)nn4)cc3)[C@@H]3CCCNC3)c12` [Example 100, ethyl (R,E)-3-(1-(4-(1-methyl-1H-1,2,3-triazol-4-yl)-N-(piperidin-3-yl)benzamido)isoquinolin-8-yl)acrylate], the figure is 1.17 µM.
